This is an account of results in patent US20170108514A1, “DIAGNOSIS OF MULTIPLE SCLEROSIS IN HUMAN AND ANIMAL SUBJECTS” (THE REGENTS OF THE UNIVERSITY OF COLORADO, a body corporate, priority 2014, published 2017).

In data set [1] the test system is Th40 cells from MS subjects. The data set is described as follows: Antigen assay: proliferation of CFSE-labeled T cells (Th40) exposed to autologous APC/peptide antigen for 7 days. It is filed as cell-based, human.
In data set [2] the test system is multiple sclerosis patients. The conditions noted are these: human, in vivo; cited from earlier work.
In data set [3] the test system is multiple sclerosis patients. Conditions: cited from earlier work; for relapses / attacks: clinical reports; for relapses / attacks / disease / disability progression / MRI / MRI lesions: MS patients.
[4] abbreviates: DR4 co-expressed with DR2, antigen 5 μg/ml.
[5] abbreviates: DR4 co-expressed with DR6, antigen 5 μg/ml.
[6] abbreviates: DR6 a fixed allele, any haplotype at other allele, antigen 5 μg/ml.
Where [7] appears, read: RRMS subjects, DR2 at one allele, other allele any haplotype, antigen 5 μg/ml.
Where [8] appears, read: DR2 and DR6 co-expressed, antigen 5 μg/ml.
[9] abbreviates: DR4 expressing MS subjects, open second allele, antigen 5 μg/ml.
[10] abbreviates: DR6 at both alleles, antigen 5 μg/ml.

Counter-ions that a name gives are not always drawn.

On to “ADPGSRPHLIRLFSRDAPGR [MBP83, MS associated peptide antigen from MBP]”, for which the “antigen response by Th40 cells” value is given as “diminished” in data set [1] (setting [4]), “increased” in data set [1] (setting [5]), “best response” in data set [1] (setting [6]) and “least reactive” in data set [1] (setting [7]).

As to `C/C(O)=C(\C#N)C(=O)Nc1ccc(C(F)(F)F)cc1` [Aubagio, teriflunomide], the safety in patients result in data set [2] is recorded as “moderate potential for hepatotoxicity”.

In the case of “LVERGNHSKIVAGVLGLI [PLP103, MS associated peptide antigen from PLP]”, the “antigen response by Th40 cells” value was “significantly greater than the remaining antigens tested” in data set [1] (setting [8]), “equally” in data set [1] (setting [9]), “best response” in data set [1] (setting [6]) and “best Th40 response” in data set [1] (setting [10]).

Consider `O=C1c2c(O)ccc(O)c2C(=O)c2c(NCCNCCO)ccc(NCCNCCO)c21` [Novantrone, mitoxantrone], for which the relapses / attacks result in data set [3] is “lessens relapses”. Moreover, the “disease / disability progression” value in data set [3] (reports) is reported as “slows progression”.

For the compound “MEVGWYRPPFSRVVHLYRNGK [MOG35, MS associated peptide antigen from MOG]”, the “antigen response by Th40 cells” value is “prominent response antigen” in data set [1] (setting [8]) and “very little response” in data set [1] (setting [9]).

alemtuzumab [Lemtrada]: the safety in patients entry in data set [2] is “significantly increases the risk for opportunistic infections”.

`CCCCCCCCc1ccc(CCC(N)(CO)CO)cc1` [Gilenya, fingolimod]: the safety in patients result in data set [2] is on record as “extremely immune-suppressive”.

Turning to “AQGTLSKIFKLGGRDSRSGSPMARR [MBP146, MS associated peptide antigen from MBP]”, the entries for the “antigen response by Th40 cells” value in data set [1] (setting [8]) and in data set [1] (setting [10]) were “no response” and “worst response antigen”, respectively.

On to Natalizumab [Tysabri], for which, in data set [3] (reports), the “MRI / MRI lesions” value is “some positive effects on MRI” and the “disease / disability progression” value is “slow progression”. In data set [3] (reports, MS subjects, IV infusion once every four weeks), the “reduction in relapse rate” value was “two-thirds”.

As to Glatiramer acetate [Copaxone], in data set [3], the relapses / attacks entry is “decreasing frequency and severity of attacks”. The “MRI / MRI lesions” value in data set [3] (reports) is on record as “no reports of changes in MRI lesions”.

“FFRDHSYQE [MOG99, MS associated peptide antigen from MOG]”: the “antigen response by Th40 cells” value in data set [1] (setting [8]) is given as “significantly less response”; in data set [1] (setting [4]), “remains high”; in data set [1] (setting [5]), “unaffected”; in data set [1] (setting [9]) it was “responded”; in data set [1] (setting [7]), “best antigen response”.

Turning to `COC(=O)/C=C/C(=O)OC` [Tecfidera, dimethyl fumarate], the relapses / attacks entry in data set [3] is “some reduction in the average annual number of relapses”. Also, the “disease / disability progression” value in data set [3] (reports) is “not reduced significantly”.
